Source: US12187679B2, “Hydroxylated psilocybin derivatives and methods of using” (Enveric Biosciences Canada Inc., priority 2020, dated 2025)

Key:
5-HT2A receptor = 5-HT2A receptor (Homo sapiens, UniProt P28223); experiment: Fluo-8 calcium release assay, serotonin with and without compound (positive allosteric modulation), +5-HT2A cells; format: cell-based; details: serotonin 3 uM with compound 3 uM, FIG. 8C
From the text: (§1) Cell lines for pharmacology assays. CHO-K1/Galpha15 (GenScript, M00257) (−5-HT2A) and CHO-K1/5-HT2A (GenScript, M00250) (+5-HT2A) cells lines were used in both toxicology/growth inhibition (MTT) and calcium release assays. Briefly, CHO-K1/Galpha15 is a control cell line that constitutively expresses Galpha15 which is a promiscuous Gq protein. It is engineered as a host cell, allowing transfected receptor(s) to signal through the Gq signal transduction pathway and mobilize intracellular calcium from the endoplasmic reticulum (ER). These control cells lack any transgene encoding 5-HT2A receptors, thus preventing calcium mobilization in response to 5-HT2A activation. Conversely, CHO-K1/5-HT2A cells stably express 5-HT2A receptor in the CHO-K1 host background. […]
(§2) Increase in cytosolic calcium concentration by 5-HT2A activation and assessment of modulation. Changes in intracellular calcium concentration due to the treatment with assay compounds was measured using Fluo-8 dye (Abcam, #ab112129) according to the manufacturer's instructions. […] Fluorescence (ex 490 nm/em 525 nm) obtained after the addition of molecules was expressed relative to values obtained before addition of the molecules (relative Fluo-8 fluorescence=Fmax/F0, where Fmax=maximum fluorescence and F0=baseline fluorescence). Fluorescence intensities were measured using a Spectramax ID3 plate reader (www.moleculardevices.com). […]

[1] = test system: CHO-K1/Galpha15 cells lacking 5-HT2A; experiment: Fluo-8 calcium release control assay in -5-HT2A cells; format: cell-based, Chinese Hamster; details: FIG. 8D panel A
From the text: as §1, §2

Chain of 5-HT2A receptor (P28223 whole entry): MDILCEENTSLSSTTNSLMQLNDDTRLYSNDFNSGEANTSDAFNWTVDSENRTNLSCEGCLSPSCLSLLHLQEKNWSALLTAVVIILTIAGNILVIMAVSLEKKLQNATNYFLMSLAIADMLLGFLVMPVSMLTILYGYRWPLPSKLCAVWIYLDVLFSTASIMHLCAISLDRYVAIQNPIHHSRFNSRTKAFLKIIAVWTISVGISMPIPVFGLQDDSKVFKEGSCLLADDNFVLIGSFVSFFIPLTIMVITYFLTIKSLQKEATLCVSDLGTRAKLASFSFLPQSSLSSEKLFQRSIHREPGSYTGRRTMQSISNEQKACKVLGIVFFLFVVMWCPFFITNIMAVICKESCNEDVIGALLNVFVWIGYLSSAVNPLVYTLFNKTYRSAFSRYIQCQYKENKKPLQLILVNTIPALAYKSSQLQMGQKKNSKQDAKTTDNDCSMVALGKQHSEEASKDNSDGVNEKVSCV

SMILES: CC(=O)NCCc1c[nH]c2c(C)ccc(O)c12 [compound (IV), N-[2-(4-hydroxy-7-methyl-1H-indol-3-yl)ethyl]acetamide]
- time-dependent calcium flux (relative fluorescence, RFU) in response to serotonin with compound vs serotonin alone (5-HT2A receptor): elevated flux

SMILES: NCCc1c[nH]c2ccc(O)cc12 [serotonin, 5-hydroxytryptamine]
- calcium response (relative Fluo-8 fluorescence) [1]: did not exhibit a response
